Where two headings read alike, the source gives them in different places.
Tests used:
[1] = tested on: vasodilator-stimulated phosphoprotein (VASP) phosphorylated on Ser239 in CS-54 rat vascular smooth muscle cells; experiment: VASP phosphorylation in CS-54 cells (immunoblot); assay type: cell-based
Method: CS-54 rat vascular smooth muscle cells were treated with the indicated concentrations of NO-Cbi for 1 hour (A), or 10 μM NO-Cbi for the indicated times (B and C). […] In A and B, “Con” refers to control, which was cells treated with water. As indicated, the effects of 30 μM cobinamide (Cbi) and 100 μM 8-CPT-cGMP (cGMP) are shown for comparison. In A and B, similar results were obtained in two other experiments.
Briefly, cells treated with an NO-releasing agent were extracted rapidly in a sodium dodecyl sulfate (SDS) containing sample buffer, and the cell extracts were subjected to SDS-polyacrylamide gel electrophoresis. Phospho-VASP was assessed by immunoblotting using an antibody specific for VASP phosphorylated on Ser259 (Smolenski A et al. (1998) J. Biol. Chem. 273:20029-35).
To determine if NO released from NO-Cbi can have a physiologic effect in cultured cells, vasodilator-stimulated phosphoprotein (VASP) phosphorylation was assessed in CS-54 cells.

[2] = tested on: Malpighian tubules isolated from D. melanogaster; experiment: Malpighian tubule fluid secretion; set-up: species or system Drosophila melanogaster
Method: Malpighian tubules are the osmoregulatory organs of D. melanogaster, corresponding to vertebrate kidneys. Tubular fluid secretion is stimulated by NO and cGMP, and fluid secretion rates were measured as described previously (Broderick K E et al. (2005) J. Biol. Chem. 280:8678-85). Briefly, the Malpighian tubule pair of a fly was resected and suspended in mineral oil. […]
Malpighian tubules are an excellent model for studying the effects of a drug on an intact organ system (Broderick K E et al. (2003) Am. J. Physiol. Cell Physiol. 285:C1207-18). […] Deta-NONOate may not be affected as much by cysteine in the medium, because it has a slower NO release rate and the intact drug can be transported intracellularly before much NO is released.

[3] = tested on: D. melanogaster; experiment: Nitrite and nitrate in extracts of injected flies; assay type: in vivo, Drosophila melanogaster; conditions: 1 μl of 1 mM NO-Cbi injected
Method: Nitrite and nitrate in extracts of NO-Cbi-injected flies were measured, and, as in the studies with CS-54 cells, a little over 50% of the injected NO as nitrite and nitrate was recovered (FIG. 3c). The nitrite/nitrate levels reached a maximum at 1 hour, and returned to that of water-injected flies at 4-5 hours (FIG. 3c). […] Nitrite and nitrate excretion likely explained the only partial recovery of NO.

[4] = tested on: isolated mouse hearts; experiment: Coronary flow in isolated perfused mouse hearts (Langendorff)
Method: (§1) Hearts and aortas were removed from NIH Swiss mice anesthetized with sodium nembutal, and coronary flow was measured in the hearts using a Langendorff preparation (FIG. 5a) and relaxation of aortic rings was measured after inducing constriction of the rings with prostaglandin F2α (FIG. 5b). The hearts and aortic rings were treated with a range of concentrations of NO-Cbi (filled circles), nitroglycerin (open circles, dotted line, FIG. 5a), and sodium nitroprusside (open circles, FIG. 5b). Coronary flow was measured on the same hearts for both NO-Cbi and nitroglycerin after an appropriate wash-out period between drugs, and aortic ring relaxation was measured on two rings from the same aorta for NO-Cbi and sodium nitroprusside. The data are the mean of two independent experiments performed on two separate hearts in each experiment (FIG. 5a), and the mean±SEM of two independent experiments performed on three separate aortic rings in each experiment (FIG. 5b).
Coronary flow was measured in isolated perfused mouse hearts in a Langendorff system, and was 10.8±0.5 ml/min/g wet weight (n=7 hearts) under basal conditions. […] The latter value is similar to maximal coronary flow of 24.6±1.8 ml/min/g wet weight obtained with 62 μM adenosine. For nitroglycerin to increase coronary flow to that of NO-Cbi, the nitroglycerin concentration had to be increased to 770 μM, or about 100-fold greater than the NO-Cbi concentration (FIG. 5a).

[5] = tested on: mouse aortic rings; experiment: Relaxation of mouse aortic rings constricted with prostaglandin F2α; conditions: rings pretreated with 2 μM prostaglandin F2α; read-out: EC50, concentration that induced half-maximal relaxation
Method: as §1
Relaxation of aortic contraction was measured in 3 mm rings cut from thoracic aortas of mice; the rings were pretreated with 2 μM prostaglandin F2α to produce 0.5-1 g of active tension.

[6] = tested on: New Zealand white rabbit; experiment: Oral (nasogastric) NO-Cbi and rabbit blood pressure; assay type: in vivo
Method: An anesthetized New Zealand white rabbit was given NO-Cbi via a nasogastric tube at 10 and 100 (0.32 and 3.2 mg/kg) (FIG. 10a) or 10 and 50 (0.32 and 1.6 mg/kg) (FIG. 10b) times the dose used intravenously. Blood pressure was monitored continuously by an intra-arterial catheter, and was recorded every 5 minutes. The blood pressure was allowed to stabilize for 10 minutes prior to administering NO-Cbi.

[7] = for change of spectrum: room temperature, open to air
Method: NO-Cbi was diluted 100-fold into DMEM containing 10% FBS, transferred to a cuvette, and analyzed immediately by spectrophotometry between 300 and 600 nm (curve a). Spectra were obtained every 30 minutes for 3 hours, generating the family of curves, with curve b being the 3 hour spectrum; in the inset, curve b is the spectrum at 16 hours. The cuvette was open to air and kept at room temperature. The same experiment was repeated two times with similar results.
NO-Cbi was diluted 100-fold in water, PBS, or DMEM containing 10% FBS to a final concentration of 50 uM. It was analyzed spectrophotometrically between 300 and 600 nm in a Kontron 860 spectrophotometer, and by mass spectroscopy using a LCQ classic ion-trap-type mass spectrometer (Thermo-Finnigan) at 160° C. capillary temperature and 5000V spray voltage. The mass spectrometry data were acquired in profile mode and analyzed on Xcalibur software.

[8] = tested on: CS-54 rat vascular smooth muscle cells
Method: CS-54 rat vascular smooth muscle cells were treated with the indicated concentrations of NO-Cbi for 1 hour (A), or 10 μM NO-Cbi for the indicated times (B and C). […] (C) Cell extracts were clarified by centrifugation, and nitrite and nitrate in the extracts were measured by an enhanced Griess reagent method. In A and B, “Con” refers to control, which was cells treated with water. As indicated, the effects of 30 μM cobinamide (Cbi) and 100 μM 8-CPT-cGMP (cGMP) are shown for comparison. In A and B, similar results were obtained in two other experiments.
Nitrite and nitrate were measured in CS-54 cell extracts and fly extracts using a kit from Active Motif based on an enhanced Griess reagent, as described previously (Broderick K E et al. (2006) FASEB J. 20:1865-73).

[9] = incubated with excess heme; cited from earlier work
[10] = tested on: mice; assay type: in vivo, mouse; conditions: 0.6 nmol three times at 32 minute intervals

## CC1=C2[N+]3=C(C=C4[N+]5=C(C(C)=C6[N]7C(C(CC(N)=O)C6(C)CCC(=O)NCC(C)O)C6(C)[N+](=C1C(CCC(N)=O)C6(C)CC(N)=O)[Co-3]753[N]=O)C(CCC(N)=O)C4(C)C)C(CCC(N)=O)C2(C)CC(N)=O (stereo not shown) [NO-Cbi, nitrosyl cobinamide]
[1]; 10 μM NO-Cbi
  course of VASP phosphorylation after the maximum: declined over the ensuing 4 hours
  time at which effect on VASP phosphorylation could be observed: 15 min
  time of maximal effect on VASP phosphorylation: 30 to 60 min
[1]; 1 to 30 μM, 1 hour, CS-54 cells
  VASP phosphorylation: induced VASP phosphorylation
[2]; 1 mM, 70 minute time point (50 minutes after adding drugs), half-strength Schneider's medium
  rate of tubular secretion relative to cobinamide-treated tubules: 1.6 times
[2]; 1 mM, half-strength Schneider's medium
  fluid secretion: stimulated fluid secretion to a similar extent as 100 μM 8-CPT-cGMP, but somewhat less than 500 μM Deta-NONOate
[2]; full strength of Schneider's medium
  fluid secretion: no effect
[3]
  injected NO recovered as nitrite and nitrate: over 50%
  time of maximum nitrite/nitrate levels: 1 h
  time of return of nitrite/nitrate levels to that of water-injected flies: 4 to 5 h
[4]
  low concentration that significantly increased coronary flow: 20 nM
[4]; 7 μM infused
  coronary flow: 22.8±1.2 ml/min/g wet weight
  increase of coronary flow: more than two-fold
[5]
  EC50: 195 ± 12 nM
[6]; 3.2 or 1.6 mg/kg via nasogastric tube
  blood pressure on the higher dose: steeper decrease
[6]; low dose (0.32 mg/kg) via nasogastric tube
  time until blood pressure began to decrease: ≤ 10 min
[6]; via nasogastric tube
  blood pressure after 100 or 180 minutes: remained lower than baseline
  duration of effect after each dose: at least 40 minutes
[7]; DMEM containing 10% FBS
  time for spectrum to change to that of cobinamide: about 3 h
[7]; buffer
  effect on NO-Cbi's half-life: significantly reduced
  half-life: ~1.5 h
[7]; phosphate-buffered saline (PBS)
  change of spectrum: little spectral change
[7]; water, 16 hours
  change of spectrum: did not change
[8]; 10 μM NO-Cbi, CS-54 cells
  increased nitrite and nitrate as share of the NO added as NO-Cbi: 55%
  nitrite and nitrate in the culture medium: increased nitrite and nitrate
[8]; rat
  half-life of NO-Cbi estimated from nitrite and nitrate accumulation: 0.5 h and 1 h
[9]
  half-life: short
[10]
  blood pressure and heart rate on repeated injections: a decrease in blood pressure and increase in heart rate was observed with each injection
